According to US9023763B2, “Modification of trehalose-6-phosphate levels in plants” (Isis Innovation Limited, priority 2011, dated 2015):
Like-named read-outs stand apart in the source and are kept apart here.

Key:
[1] = In vitro deprotection under UV light and sunlight, followed by mass spectrometry/TLC and P NMR; format: physicochemical; conditions: for deprotection time: 5 mM in phosphate buffer pH 7.4
Source text: Two experimental techniques were chosen for studying the progress of deprotection experiments i.e. i) Mass spectroscopy and TLC (spot), and ii) P NMR. Progress of the reactions was monitored by looking for the disappearance of peak corresponding to protected compounds and appearance of peak corresponding to T6P. The structure of completely uncaged compound i.e. T6P was established by 1D and 2D NMR.
Both experimental techniques were very efficient and reproducible to analyse the deprotection experiments. Five millimolar solutions of Examples 1 to 4 were prepared in phosphate buffer (pH 7.4) and the resulting solution was exposed to different wavelengths of UV light and sunlight to monitor deprotection at different time intervals.
After successful synthesis of protected-G6P(1-OMe) compounds their deprotection was carried out under various wavelength and power of UV light.

[2] = In-planta uptake after feeding to roots of seedlings, quantified by HPLC/LCMS; format: in vivo, Arabidopsis thaliana; conditions: for Uptake %: proportion of compound fed taken up by the plant, 72 h; for Uptake % / uptake in μg/10 mg of seedling / concentration at 72 h: Arabidopsis seedling; for uptake in μg/10 mg of seedling / concentration at 72 h: protected T6P compounds, after 72 h (3 days), n = 3; for in-planta uptake (in words): after 72 h; for concentration at 72 h: read-out: uptake in μg/10 mg of seedling
Protocol: Aqueous solutions of each of Examples 1 to 4 were fed to roots of seedlings of Arabidopsis thaliana and after a certain period of time the aerial (shoot) part of seedling was harvested carefully and extracted in H2O:MeOH (1:1) under liquid nitrogen to get crude fresh plant extract. The crude fresh plant extract thus obtained was analysed by mass spec and using HPLC to quantify the amount of compound taken up.
An aqueous solution of NB-T6P (Example 1) was fed to the seedlings, at 1 mM final concentration, near to the root and uptake was monitored in freshly prepared extract after 24 h, 48 h and 72 h using both HPLC and mass technique.
The quantitative analysis of the compounds taken up into the plant was carried out using freshly prepared plant extract by LCMS and summarised data are given in Table 2.

Arabidopsis thaliana = experiment: Increased starch production in treated plants; format: in vivo; conditions: 0.1 mM in the media
Protocol: Pre-stratified Arabidopsis thaliana seeds were sown in sterile culture on 0.5 mL solid medium (0.5× Murashige and Skoog with Gamborg's vitamins, 0.5% agar) in 0.5 mL tubes pierced with a small hole in the bottom. Tubes were arrayed in polystyrene racks and floated in liquid medium without added sucrose in Phytatrays. Seedlings were grown under 12 hr days under fluorescent lights giving 250 μmo/m^2/s, and 23° C. day/18° C. night temperatures. At 16-20 days after sowing the liquid medium was removed and the tubes were sealed with electrician's tape. All plants were topped up with 0.5×MS medium with no sucrose. Plants were treated with compound example 3, or water by adding example 3 to a final concentration of 0.1 mM in the media. On the third day plants were subjected to growth lights supplemented with UV light (8 W UV bulb) from a Gelman transilluminator (Model 51438) at a distance of 6 cm for 8 h. Plants were allowed to recover for a further day and the aerial parts were harvested at the end of the day, weighed and frozen in liquid nitrogen. Starch was extracted according to published methods, converted to glucose and measured as nmol glucose/gram fresh weight (Nature Protocol 2006, 1, 1342). Results are depicted in FIG. 6.

SnRK1 = SnRK1 assay (Plant Physiol. 2009, 149, 1860-1871); format: biochemical
Protocol: The compounds synthesised in Examples 1 to 4 were tested against the known target for T6P in vitro i.e. SnRK1, using the assay described in Plant Physiol. 2009, 149, 1860-1871.
T6P deprotected by treatment of NB-T6P (Example 1) under deprotection conditions of 125 W/365 nm radiation was included in SnRK1 assays (carried out in accordance with Plant Physiol. 2009, 149, 1860-1871) to determine its inhibition effect and compared to commercially available T6P from Sigma. The results are depicted in FIG. 3.

[3] = Arabidopsis thaliana, in vivo, 1 mM

| deprotection time of caged G6P(1-OMe) ([1]; 8 W/254 nm) [h] | deprotection time of caged G6P(1-OMe) ([1]; 8 W/365 nm) [h] | deprotection time of caged G6P(1-OMe) ([1]; 125 W/200-400 nm) [h] | deprotection time of caged G6P(1-OMe) ([1]; 125 W/365 nm) [h] | deprotection time of caged G6P(1-OMe) ([1]; Sun light) [h] | SMILES | deprotection time ([1]; 8 W/254 nm) [min] | deprotection time ([1]; 8 W/365 nm) [min] | deprotection time ([1]; 125 W/200-400 nm) [min] | deprotection time ([1]; 125 W/365 nm) [min] | deprotection time ([1]; Sun light) [min] | Uptake % [2] [%] | in-planta uptake (in words) [2] | also measured |
| --- | --- | --- | --- | --- | --- | --- | --- | --- | --- | --- | --- | --- | --- |
| – | – | – | – | – | O=[N+]([O-])c1ccccc1COP(=O)(OCc1ccccc1[N+](=O)[O-])OCC1O[C@H](O[C@H]2OC(CO)[C@@H](O)C(O)C2O)C(O)C(O)[C@@H]1O (some centres unmarked) [Example 1, NB-T6P] | 240 | 360 | 15 | 30 | 360 | 14 | – | concentration at 24 h ([2]; Arabidopsis thaliana, in vivo, 1 mM final concentration fed near the root, 24 h): 263000 ng/g; concentration at 48 h ([2]; Arabidopsis thaliana, in vivo, 1 mM final concentration fed near the root, 48 h): 605000 ng/g; uptake in μg/10 mg of seedling [2]: 26.39 μg/10 mg of seedling |
| 2 | 2 | 0.75 | 1.25 | 10 | COC1OC(COP(=O)(OC(C)c2ccccc2[N+](=O)[O-])OC(C)c2ccccc2[N+](=O)[O-])C(O)C(O)C1O (mixture of isomers) [NPE-G6P(1-OMe)] | – | – | – | – | – | – | – | – |
| 10 | 10 | 1.25 | 1.25 | 8 | COc1cc(COP(=O)(O)OC[C@H]2O[C@H](OC)[C@H](O)[C@@H](O)[C@@H]2O)c([N+](=O)[O-])cc1OC [Mono-DMNB-G6P(1-OMe)] | – | – | – | – | – | – | – | – |
| – | – | – | – | – | CC(OP(=O)(OCC1O[C@H](O[C@H]2OC(CO)[C@@H](O)C(O)C2O)C(O)C(O)[C@@H]1O)OC(C)c1ccccc1[N+](=O)[O-])c1ccccc1[N+](=O)[O-] (some centres unmarked) [Example 3, NPE-T6P] | 90 | 90 | 10 | 20 | 90 | 18 | taken up by the plant | uptake in μg/10 mg of seedling [2]: 66.0 μg/10 mg of seedling; increase in amount of starch produced relative to concentration of T6P released in-planta (Arabidopsis thaliana; 8 W UV for 8 h): tenfold higher; starch levels compared to plants treated with water only (Arabidopsis thaliana; growth lights plus 8 W UV bulb for 8 h on third day, harvested a day later, FIG. 6): significantly higher starch levels |
| – | – | – | – | – | COc1cc(COP(=O)(O)OCC2O[C@H](O[C@H]3OC(CO)[C@@H](O)C(O)C3O)C(O)C(O)[C@@H]2O)c([N+](=O)[O-])cc1OC (some centres unmarked) [Example 4, Mono-DMNB-T6P] | 600 | 360 | 45 | 45 | 360 | 1 | taken up by the plant | concentration at 72 h [2, 3]: 360000 ng/g; concentration at 72 h ([2]; Arabidopsis thaliana, in vivo): 360000 ng/g |
| 6 | 8 | 0.75 | 1.25 | 8 | CO[C@H]1O[C@H](COP(=O)(OCc2ccccc2[N+](=O)[O-])OCc2ccccc2[N+](=O)[O-])[C@@H](O)[C@H](O)[C@H]1O [NB-G6P(1-OMe)] | – | – | – | – | – | – | – | – |
| 10 | 10 | 2 | 2 | 10 | COc1cc(COP(=O)(OCc2cc(OC)c(OC)cc2[N+](=O)[O-])OC[C@H]2O[C@H](OC)[C@H](O)[C@@H](O)[C@@H]2O)c([N+](=O)[O-])cc1OC [DMNB-G6P(1-OMe)] | – | – | – | – | – | – | – | – |
| – | – | – | – | – | O=P(O)(O)OC[C@H]1O[C@H](O[C@H]2O[C@H](CO)[C@@H](O)[C@H](O)[C@H]2O)[C@H](O)[C@@H](O)[C@@H]1O [Example T6P, trehalose-6-phosphate] | – | – | – | – | – | – | – | SnRK1 inhibition (SnRK1; T6P obtained from deprotection of Example 1 (125 W/365 nm), 0.32 mM, FIG. 3): inhibits SnRK1 in the same way as commercially available T6P; SnRK1 inhibition (SnRK1; in vitro, in duplicate, FIG. 1): shows typical inhibition |
| – | – | – | – | – | COc1cc(COP(=O)(OCc2cc(OC)c(OC)cc2[N+](=O)[O-])OCC2O[C@H](O[C@H]3OC(CO)[C@@H](O)C(O)C3O)C(O)C(O)[C@@H]2O)c([N+](=O)[O-])cc1OC (some centres unmarked) [Example 2, DMNB-T6P] | 600 | 600 | 60 | 60 | 480 | 1 | taken up by the plant | concentration at 72 h [2, 3]: 318000 ng/g; concentration at 72 h ([2]; Arabidopsis thaliana, in vivo): 318000 ng/g |
